23 molecules from patent US7473688B2, “Indolobenzazepine HCV NS5B inhibitors” (Bristol-Myers Squibb Company, priority 2005, dated 2009) can be followed below.

As a reminder, the EC50 is the concentration that produces a half-maximal response. Usually IC50 stands for the concentration at which inhibition is half-maximal.

SMILES strings stand for the structures. Read-outs that look alike come from different tables or passages of the source. Where only a bound is given, the exact number is not on record here.

Test [1] has as its system HCV replicon. As to the kind of experiment: HCV replicon FRET assay. The class given is cell-based. To be noted: Hepatitis C virus. An outline of the steps:
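HCV replicon cells, with or without Renilla luciferase reporter, incubated with titrated compounds at 37 °C; Alamar blue read for cytotoxicity. NS3 protease activity read from lysates with 20 μM EDANS/DABCYL FRET peptide (340/490 nm, kinetic), or by Dual-Glo luciferase. Background from highest protease-inhibitor wells; EC50 = 50% signal reduction.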
(A replicon is a self-replicating genome or part of one, used to study replication in cells.)

In test [2] the target is T1, HCV NS5B (Hepatitis C virus genotype 1b, UniProt Q9WMX2).
T1 construct: The protein was expressed with an 18 amino acid C-terminal truncation to enhance the solubility; made in house; host or cells: E. coli BL21 (DE3), pET21a
T1 sequence (Q9WMX2 2420-2992): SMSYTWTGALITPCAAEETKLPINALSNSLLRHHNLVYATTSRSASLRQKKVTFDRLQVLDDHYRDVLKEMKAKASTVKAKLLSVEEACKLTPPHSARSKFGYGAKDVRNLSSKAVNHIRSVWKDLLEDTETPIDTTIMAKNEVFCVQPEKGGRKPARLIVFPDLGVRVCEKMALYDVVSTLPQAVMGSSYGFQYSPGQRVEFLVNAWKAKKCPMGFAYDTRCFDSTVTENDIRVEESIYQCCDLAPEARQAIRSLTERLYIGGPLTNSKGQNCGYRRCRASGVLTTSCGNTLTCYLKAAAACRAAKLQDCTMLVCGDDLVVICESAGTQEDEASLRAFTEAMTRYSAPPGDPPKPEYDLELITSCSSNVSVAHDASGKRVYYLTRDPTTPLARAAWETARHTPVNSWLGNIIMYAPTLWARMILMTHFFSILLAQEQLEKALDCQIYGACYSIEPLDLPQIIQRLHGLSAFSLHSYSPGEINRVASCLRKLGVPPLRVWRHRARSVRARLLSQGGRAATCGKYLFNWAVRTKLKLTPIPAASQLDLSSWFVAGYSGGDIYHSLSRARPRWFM
As to the kind of experiment: HCV NS5B RdRp enzyme assay (preincubation protocol). The class given is biochemical. An outline of the steps: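 Preincubation format: enzyme (14 nM, genotype 1b, 18-residue C-terminal truncation) meets diluted compound first; reaction started with bead-bound biotinylated dT12 primer, polyA template 0.2 nM and 0.29 μM 3H-UTP. Run 4 h, 30 °C in Hepes pH 7.5; scintillation proximity signal; IC50 fitted from seven inhibitor levels.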

[3] abbreviates: Table 1, FRET assay, read-out: EC50*.
Setting [4] is: Table 1a, FRET assay, read-out: EC50*.
The mark [5] stands for this setting: Table 1b, FRET assay, read-out: EC50*.

`CN(C)S(=O)(=O)NC(=O)c1ccc2c(C3CCCCC3)c3n(c2c1)CC(C(=O)N1CCC(N2CCOCC2)CC1)=Cc1cc(O)ccc1-3`: the EC50 in test [1] (setting [3]) was 70 to 1000 nM. In addition, the 50% inhibitory concentration (IC50) in test [2] (Table 1, read-out: IC50*) is 10 to 1000 nM.
`CN(C)S(=O)(=O)NC(=O)c1ccc2c(C3CCCCC3)c3n(c2c1)CC(C(=O)N1C2CCC1CC2)=Cc1ccccc1-3` came in with a concentration for a half-maximal effect (EC50) in test [1] of 70 to 1000 nM. Further, the IC50 in test [2] (Table 1, read-out: IC50*) fell in the range of 10 to 1000 nM.
As for `COc1ccc2c(c1)CC(C(=O)NCc1cc(C)nn1C)Cn1c-2c(C2CCCCC2)c2ccc(C(=O)NS(=O)(=O)N(C)C)cc21` (stereo not shown), in test [1] (setting [4]), the EC50 fell in the range of 30 to 1000 nM. The IC50 in test [2] (Table 1a, read-out: IC50*) was in the range of 10 to 1000 nM.
With `COc1ccc2c(c1)CC(NC(=O)N1CC(O)C1)Cn1c-2c(C2CCCCC2)c2ccc(C(=O)NS(=O)(=O)N(C)C)cc21` (stereo not shown), the EC50 in test [1] (setting [5]) lay within 30 to 1000 nM. In test [2] (Table 1b, read-out: IC50*), the IC50 was 20 to 1000 nM.
As for `C[C@@H]1CN(C(=O)c2ccccc2)CCN1C(=O)C1=Cc2ccccc2-c2c(C3CCCCC3)c3ccc(C(=O)O)cc3n2C1`, the concentration giving a half-maximal response (EC50) in test [1] (setting [3]) fell in the range of 70 to 1000 nM. Besides, in test [2] (Table 1, read-out: IC50*), the IC50 is 10 to 1000 nM.
`COc1ccc2c(c1)C=C(C(=O)N1CCN(CCOCCO)CC1)Cn1c-2c(C2CCCCC2)c2ccc(C(=O)NS(=O)(=O)N(C)C)cc21`: in test [1] (setting [5]), the EC50 is 30 to 1000 nM. The IC50 in test [2] (Table 1b, read-out: IC50*) is 20 to 1000 nM.
For the molecule `CN(C)S(=O)(=O)NC(=O)c1ccc2c(C3CCCCC3)c3n(c2c1)CC(C(=O)N1CCS(=O)(=O)CC1)=Cc1ccccc1-3`, the EC50 in test [1] (setting [3]) is 70 to 1000 nM. In addition, the IC50 in test [2] (Table 1, read-out: IC50*) was in the range of 10 to 1000 nM.
On to `CN(C)S(=O)(=O)NC(=O)c1ccc2c(C3CCCCC3)c3n(c2c1)CC(C(=O)N1CCC(N2CCCC(F)C2)CC1)=Cc1ccccc1-3` (stereo not shown), for which the half-maximal effective concentration (EC50) in test [1] (setting [3]) was 70 to 1000 nM. In addition, the half-inhibitory concentration (IC50) in test [2] (Table 1, read-out: IC50*) lay in the range of 10 to 1000 nM.
With `COC(=O)c1ccc2c(C3CCCCC3)c3n(c2c1)CC(C(=O)N1C[C@@H](C)N[C@@H](C)C1)=Cc1c(OC)cccc1-3`, the half-maximal effective concentration (EC50) in test [1] (setting [5]) was > 370 nM. Further, in test [2] (Table 1b, read-out: IC50*), the IC50 fell in the range of 20 to 1000 nM.
The matching figures for `COc1ccc2c(c1)C=C(C(=O)N(C)CC(=O)N(C)C)Cn1c-2c(C2CCCCC2)c2ccc(C(=O)N(C)CC(=O)N(C)C)cc21`: 1000 to 10000 nM and 20 to 1000 nM.
In the case of `O=C(O)c1ccc2c(C3CCCCC3)c3n(c2c1)CC(C(=O)N1CCC(N2CCOCC2)CC1)=Cc1ccc(Cl)cc1-3`, the EC50 in test [1] (setting [3]) lay in the range of 1000 to 10000 nM. For the same molecule, the IC50 in test [2] (Table 1, read-out: IC50*) is > 1000 nM.
With `COc1ccc2c(c1)C=C(C(=O)O)Cn1c-2c(C2CCCCC2)c2ccc(C(=O)NS(=O)(=O)N3CCN(C(C)=O)CC3)cc21`, the EC50 in test [1] (setting [5]) was > 10000 nM. The IC50 in test [2] (Table 1b, read-out: IC50*) was 20 to 1000 nM.
In the case of `COc1ccc2c(c1)C=C(C(=O)NCc1nccs1)Cn1c-2c(C2CCCCC2)c2ccc(C(=O)NS(=O)(=O)N(C)C)cc21`, the EC50 in test [1] (setting [4]) lay within 30 to 1000 nM. Also, in test [2] (Table 1a, read-out: IC50*), the IC50 lay in the range of 10 to 1000 nM.
Regarding `COc1ccc2c(c1)C=C(C(=O)N1CCN(C(=O)C(C)(C)O)CC1)Cn1c-2c(C2CCCCC2)c2ccc(C(=O)NS(=O)(=O)N(C)C)cc21`, the EC50 in test [1] (setting [5]) lay within 30 to 1000 nM. Besides, in test [2] (Table 1b, read-out: IC50*), the IC50 fell in the range of 20 to 1000 nM.
For the molecule `O=C(O)c1ccc2c(C3CCCCC3)c3n(c2c1)CC(C(=O)N1CCC(N2CCCC(F)C2)CC1)=Cc1ccccc1-3` (stereo not shown), in test [1] (setting [3]), the EC50 lay in the range of 70 to 1000 nM. For the same molecule, in test [2] (Table 1, read-out: IC50*), the IC50 lay in the range of 10 to 1000 nM.
In the case of `COc1ccc2c(c1)C=C(C(=O)N1CCOC(CF)C1)Cn1c-2c(C2CCCCC2)c2ccc(C(=O)NS(=O)(=O)N(C)C)cc21` (stereo not shown), the EC50 in test [1] (setting [5]) was in the range of 30 to 1000 nM. Moreover, the IC50 in test [2] (Table 1b, read-out: IC50*) fell in the range of 20 to 1000 nM.
Consider `COc1ccc2c(c1)CC(NC(=O)N1CCN(S(C)(=O)=O)CC1)Cn1c-2c(C2CCCCC2)c2ccc(C(=O)NS(=O)(=O)N(C)C)cc21` (stereo not shown), for which the EC50 in test [1] (setting [4]) fell in the range of 30 to 1000 nM. For the same molecule, in test [2] (Table 1a, read-out: IC50*), the IC50 lay within 10 to 1000 nM.
With `COc1ccc2c(c1)CC(NC(=O)N1CCN(CC(=O)NC(C)C)CC1)Cn1c-2c(C2CCCCC2)c2ccc(C(=O)NS(=O)(=O)N(C)C)cc21` (stereo not shown), in test [1] (setting [4]), the EC50 lay within 30 to 1000 nM. Further, the IC50 in test [2] (Table 1a, read-out: IC50*) fell in the range of 10 to 1000 nM.
For `COc1ccc2c(c1)C=C(C(=O)N(C)CC(=O)N1CC(OC)C1)Cn1c-2c(C2CCCCC2)c2ccc(C(=O)NS(=O)(=O)N(C)C)cc21`, in that order: 30 to 1000 nM and 10 to 1000 nM.
Turning to `COc1ccc2c(c1)CC(C(=O)N1CCN(C(=O)C3(O)CC3)CC1)Cn1c-2c(C2CCCCC2)c2ccc(C(=O)NS(=O)(=O)N(C)C)cc21` (stereo not shown), the EC50 in test [1] (setting [5]) was in the range of 30 to 1000 nM. The IC50 in test [2] (Table 1b, read-out: IC50*) lay within 20 to 1000 nM.
Regarding `CCN(C(C)=O)C1CCN(C(=O)NC2Cc3cc(OC)ccc3-c3c(C4CCCCC4)c4ccc(C(=O)NS(=O)(=O)N(C)C)cc4n3C2)C1` (stereo not shown), the EC50 in test [1] (setting [4]) lay within 30 to 1000 nM. The 50% inhibitory concentration (IC50) in test [2] (Table 1a, read-out: IC50*) lay within 10 to 1000 nM.
Consider `COc1ccc2c(c1)CC(NC(=O)N1C[C@@H]3C[C@H]1CO3)Cn1c-2c(C2CCCCC2)c2ccc(C(=O)NS(=O)(=O)N(C)C)cc21` (stereo partly shown), for which the EC50 in test [1] (setting [4]) is 30 to 1000 nM. Moreover, in test [2] (Table 1a, read-out: IC50*), the IC50 lay in the range of 10 to 1000 nM.
For the molecule `COc1cccc2c1C=C(C(=O)N1CCOC(CO)C1)Cn1c-2c(C2CCCCC2)c2ccc(C(=O)O)cc21` (stereo not shown), the EC50 in test [1] (setting [5]) was 30 to 1000 nM. Further, the IC50 in test [2] (Table 1b, read-out: IC50*) lay within 20 to 1000 nM.
